Data reported in patent publication US6576620B2, “Method of identifying partial adenosine A1 receptor agonists” (CV Therapeutics, Inc., priority 1999, dated 2003).
“Also recorded” adds a separate entry of the source.

Experiments:
[1] = tested on: guinea pig isolated heart; assay: Coronary conductance, isolated heart; settings: for EC50: Cavia porcellus; for maximal increase of coronary conductance: this study, Compound 6 at 100 μM
Experimental: Coronary perfusion pressure (CPP) was measured using a pressure transducer, connected to the aortic cannula via a T-connector positioned approximately 3 cm above the heart. Coronary perfusion pressure was monitored throughout the experiment and recorded either on a chart recorder (Gould Recorder 2200S) or a computerized recording system (PowerLab/4S, ADInstruments Pty Ltd, Australia). Only hearts with CPP ranging from 60 to 85 mmHg (in the absence of drugs) were used in the study. Coronary conductance (in ml/min/mmHg) was calculated as the ratio between coronary perfusion rate (10 ml/min) and coronary perfusion pressure.
(§1) Guinea pigs (Hartley) of either sex weighing 300-350 g were anaesthetized with methoxyflurane and killed by decapitation. The chest was cut open and the heart was removed quickly and rinsed in ice-cold modified Krebs-Henseleit (K-H) solution. The contents of the modified K-H solution were (in mM): NaCl 117.9, KCl 4.8, CaCl2 2.5, MgSO2 1.18, KH2PO4 1.2, Na2 EDTA 0.5, ascorbic acid 0.14, dextrose 5.5, pyruvic acid (sodium salt) 2.0, and NaHCO3 25. The K-H solution was continuously gassed with 95% oxygen and 5% CO2, and the pH was adjusted to a value of 7.4. To perfuse the heart by the Langendorff method, the transected aorta was slid onto a glass cannula and secured by a ligature. Retrograde perfusion of the aorta was initiated immediately at a constant flow of 10 ml min-′ with modified K-H solution warmed to 36.0±0.5° C. A side port in the cannula was used to connect the perfusion line to a Gould pressure transducer for measurement of coronary perfusion pressure. Coronary perfusion pressure was continuously recorded on a strip chart (Gould RS3400, Cleveland, Ohio) throughout each experiment. Coronary conductance (in ml min^−1 mmHg^−1) was calculated as the ratio of coronary flow (10 ml min^−1) to perfusion pressure (mm Hg). To facilitate the exit of fluid from the left ventricle, the leaflets of the mitral valve were trimmed with fine spring-handled scissors. When appropriate, hearts were paced at a constant rate using external electrodes. After completion of dissection and instrumentation (see below) for measurement of either atrial rate, stimulus-to-His bundle (S-H) interval, monophasic action potentials, or coronary perfusion pressure, each heart was allowed to equilibrate for 20-40 min before the administration of drug. Experimental interventions were always preceded and followed by control measurements. Criteria for exclusion of hearts from study were (1) a coronary perfusion pressure of less than 50 mm Hg, (2) absence of a stable coronary perfusion pressure during the equilibration period, and (3) inability to pace a heart at a constant rate throughout an experiment.

[2] = tested on: guinea pig isolated heart; assay: A-V nodal conduction time / S-H interval, isolated perfused heart; settings: for second-degree AV block: CPA at 30 nM, Compound 6 at all tested concentrations; for concentration causing an increase of the S-H interval by 13 msec: comparable submaximal responses
Experimental: This method evaluates the potencies of compounds to cause coronary vasodilation (A2A AdoR response) and to prolong A-V nodal conduction time (A1 AdoR response).
Rats and guinea pigs, of either sex weighing from 230 to 260 grams and 300 to 350 grams, respectively, were used in this study. Animals were anesthetized by peritoneal injection of a cocktail containing ketamine and xylazine (ketamine 100 mg, xylazine 20 mg/ml). The chest was opened and the heart quickly removed. The heart was briefly rinse in ice-cold Krebs-Henseleit solution (see below), and the aorta cannulated. The heart was then perfused at a flow rate of 10 ml/min with modified Krebs-Henseleit (K-H) solution containing NaCl 117.9, KCl 4.5, CaCl2 2.5, MgSO4 1.18, KH2PO4 1.18, pyruvate 2.0 mmol. The K-H solution (pH 7.4) was gassed continuously with 95% O2 and 5% CO2 and warmed to 35±0.50° C. The heart was electrically paced at a fixed cycle length of […] (250 beats/min) using a bipolar electrode place on the left atrium. The electrical stimuli were generated by a Grass stimulator (Model S48, W. Warwick, R.I.) and delivered through a Stimuli Isolation Unit (Model SIU5, Astro-Med, Inc., NY) as square-wave pulses of 3-msec in duration and amplitude of at least twice the threshold intensity.
A1 adenosine receptor-mediated depression of A-V nodal conduction time (negative dromotropic effect) was measured. Atrial and ventricular surface electrograms in rats and His bundle electrogram in guinea pigs, were recorded during constant atrial pacing.
The effects of compounds on coronary conductance (A2A effect) and atrioventricular conduction time or stimulus-to-His-bundle (S-H) interval (A1 effect) was then determined. Hearts were instrumented for continuous recording of coronary perfusion pressure (A2A response) and atrioventricular (A-V) conduction time or S-H interval (A1 response). In each experiment, concentration-response relationship of compounds to increase coronary conductance and to prolong A-V conduction time or S-H interval was determined. After control measurements of CPP and A-V conduction time or S-H interval were made, progressive higher concentrations of the compound studied was administered until maximal coronary vasodilation and A-V nodal conduction time or S-H interval prolongation were achieved.
as §1, with “After completion of dissection and instrumentation (see below) for measurement of either atrial rate, stimulus-to-His bundle (S-H) interval, monophasic action potentials, or coronary perfusion pressure, each heart was allowed to equilibrate for 20-40 min before the administration of drug. Experimental interventions were always preceded and followed by control measurements. Criteria for exclusion of hearts from study were (1) a coronary perfusion pressure of less than 50 mm Hg, (2) absence of a stable coronary perfusion pressure during the equilibration period, and (3) inability to pace a heart at a constant rate throughout an experiment.” left out

SMILES: OC[C@H]1O[C@@H](n2cnc3c(NC4CCCC4)ncnc32)[C@H](O)[C@@H]1O [CPA, N^6-cyclopentyladenosine, reference compound]
- coronary conductance ([1]; CPA maximal, control 0.16±0.01): 0.33±0.01 ml min^−1 mmHg-^1
- EC50 ([1]; read-out: concentration of half-maximal increase of coronary conductance): 0.071 µM
- maximal increase of coronary conductance [1]: 0.17±0.02 ml min^−1 mmHg^−1
- S-H interval ([2]; CPA 30 nM, control 44±1 msec): 87 ± 2 ms
- S-H interval ([2]; CPA 10 μM as printed, control 42±1 msec): 59 ± 4 ms
- S-H interval ([2]; CPA 15 μM as printed, control 42±1 msec): 81 ± 6 ms
- S-H interval ([2]; CPA 20 μM as printed, control 42±1 msec): 103 ± 8 ms
- second-degree AV block [2]: second-degree AV block occurred in all hearts; also recorded: caused second-degree AV block in all hearts
- S-H interval Efficacy ([2]; Table 5, 2759 = CVT-2759): Full (Potent)
- concentration causing an increase of the S-H interval by 13 msec [2]: 10 nM

SMILES: CNC(=O)OC[C@H]1OC(n2cnc3c(N[C@@H]4CCOC4)ncnc32)[C@H](O)[C@@H]1O (stereo partly drawn) [Compound 6 of Example 2, [(5-{6-[((3R)oxolan-3-yl)amino]purin-9-yl}(3 S,2R,4R)-3,4-dihydroxyoxolan-2-yl)methoxy]-N-methylcarboxamide]
- coronary conductance ([1]; 10 μM compound, control 0.17±0.01): 0.185±0.01 ml min^−1 mmHg^−1
- coronary conductance ([1]; 100 μM compound, control 0.17±0.01): 0.26±0.02 ml min^−1 mmHg^−1
- EC50 ([1]; estimate may be falsely low, limited solubility, read-out: concentration of half-maximal response (EC50), increase of coronary conductance): 31 µM
- effect on coronary conductance ([1]; concentrations ≦10 μM): did not significantly change the coronary conductance
- maximal increase of coronary conductance [1]: 0.09±0.01 ml min^−1 mmHg^−1
- concentration at which effect on S-H interval reached a maximum [2]: 30 to 100 µM
- antagonism of S-H interval prolongation induced by CPA ([2]; 10 μM compound): partially reversed the S-H interval prolongation induced by CPA
- increase of the S-H interval ([2]; 10 μM compound): 12 ms
- increase of the S-H interval ([2]; 10 μM compound in the presence of 50 nM CPX): 4 ms
- decrease of S-H interval ([2]; 10 μM compound in the presence of iodotubercidin and EHNA): 16 ms
- S-H interval ([2]; 10 μM compound in the presence of iodotubercidin and EHNA (80±6 msec before)): 64 ± 2 ms
- S-H interval ([2]; 10 μM compound, control 46±2 msec): 58 ± 2 ms
- second-degree AV block [2]: did not cause second-degree A-V block in any heart
- EC50 ([2]; Cavia porcellus, electrically paced heart, read-out: EC50 to increase the S-H interval): 3.1 µM
- concentration causing an increase of the S-H interval by 13 msec [2]: 10,000 nM
- S-H interval at maximum effect ([2]; control 45±1 msec): 60 ± 3 ms
- maximum increase of S-H interval ([2]; electrically paced heart): 33%
- adenosine concentration causing second-degree AV block ([2]; presence of 4 μM Compound 6 of Example 2): 8 µM
- adenosine concentration causing second-degree AV block ([2]; presence of 10 μM Compound 6 of Example 2): 20 µM
